Drawing on US11634447B2 (priority 2012, dated 2023), this text covers IC50 and Kd for 14 molecules.

Several values for one entry are separate records, joined by “and”; a condition that tells them apart may be missing. Equal values may be shown once.

Test [1] relates to bacterial strain LF82 binding to the glycoprotein BSA-(Mannose)3. The test is described as follows: Bacterial Binding Assay (BBA). Conditions: read-out: Bacterial Binding Assay IC50, LF82/Luciferase strain binding to BSA-(Man)3 coated plates, luminescence. It is filed as cell-based, Escherichia coli. The gist of the method:
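Inhibition of LF82/luciferase E. coli adhesion is read as luminescence after washing off unbound cells. Compound and bacteria (10^7 per well) are co-incubated 40-75 min at room temperature on wells coated with 0.5-2 μg/mL BSA-(Man)3, with BSA-only wells as background; IC50 values derived.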

Test [2] has as its target T1, FimH-CRD (Escherichia coli, UniProt P08191).
T1 construct: The first 177 amino acids of the FimH protein are expressed as a fusion protein; thrombin tag (printed as 'fusion protein with thrombin') (cleaved yes); made in house; host or cells: bacteria (pET21b plasmid)
The test is described as follows: Competitive binding assay by fluorescence polarization, assay 2 (compounds prepared by a robotics system, plates frozen and thawed). More on the design: species or system E. coli. On the procedure: (§1) The first 177 amino acids of the FimH protein are expressed as a fusion protein with thrombin in a pET21b plasmid in bacteria. This FimH protein sequence contains the carbohydrate recognition domain (CRD) and shall be termed FimH-CRD. Following bacterial expression of the protein, the FimH-CRD protein is purified to homogeneity and the thrombin tag removed by protease cleavage. A competitive binding assay by fluorescence polarization is performed using 5 nM of the Alexa 647 mannoside probe and 60 nM of the FimH-CRD. The samples are assayed in a low volume 384 well microtiter plate in a final volume of 20 μl. The final assay buffer conditions are the following, 50 mM Tris-Cl, ph 7.0, 100 mM NaCl, 1 mM EDTA, 5 mM β-mercaptoethanol, 0.05% BSA and 2.5% DMSO. Two assays are performed for FimH, termed assay 1 or assay 2. The assay conditions are the same for both assays except the following: assay 1 has compounds prepared by manual dilution in a serial dilution factor with 12-point dose response while assay 2 has compounds prepared by a robotics system also through a serial dilution factor (12 point dose response) and initially prepared in duplicate in 384 well-Corning polypropylene round bottom plates. The assay 2 plates have compound which is then frozen and must be thawed prior to use. Initially the Alexa 647 probe and the FimH-CRD are added to the assay buffer and then 0.5 μl of test compound (assay 1 or 2) between 0.4 nM to 75 μM final concentration are added (12 point titration with 3-fold serial dilution). Control wells for the Alexa 647 probe are prepared with the same conditions except for the addition of the FimH-CRD protein. Plates are then incubated for 5 hrs at room temperature in the dark and under humid conditions to prevent drying. Plates are read using the SpectraMax Paradigm multi-mode plate reader and the appropriate fluorescent polarization detection cartridge (Alexa-647).
(§2) Alexa 647 mannoside probe is prepared using the similar procedure reported for FAM mannoside (Han, Z. et. al., 2010, J. Med. Chem., 53, 4779) and is described in the scheme below.
(§3) To a blue colored stirred solution of (2S,3S,4S,5S,6R)-2-(4-aminobutoxy)-6-(hydroxymethyl)tetrahydropyran-3,4,5-triol (2.21 mg, 0.009 mmol) and the (2E)-2-[(2E,4E)-5-[3,3-dimethyl-5-sulfonato-1-(3-sulfonatopropyl)indol-1-ium-2-yl]penta-2,4-dienylidene]-3-[6-(2,5-dioxopyrrolidin-1-yl)oxy-6-oxo-hexyl]-3-methyl-1-(3-sulfonatopropyl)indoline-5-sulfonate (Potassium Ion (3)) (4.9 mg, 0.0044 mmol) in DMF (44 μL) is added Et3N (5.4 mg, 7.0 μL, 0.053 mmol) at RT. The solution is stirred at room temperature over night, concentrated, dissolved in water and purified on 12 g C-18 silica gel cartridge on Isolera system using acetonitrile in water (0 to 40%, 10 CV) and followed by lyophilization to afford Alexa 647 mannoside probe (3.3 mg, 34%) as deep blue solid.
(§4) The Kd values of the compounds are determined from dose response curves using twelve concentrations per compound in duplicate. Curves are fitted to data points using Fluorescence Polarization competitive displacement analysis, and Kds are interpolated from the resulting curves using GraphPad Prism software, version […] (GraphPad software Inc., San Diego, Calif., USA).

The target in test [3] is T1, FimH-CRD. The test is described as follows: Competitive binding assay by fluorescence polarization, assay 1 (compounds prepared by manual dilution). Set-up: species or system E. coli. The following applies: Assay 1 Kd, 5 nM Alexa 647 mannoside probe, 60 nM FimH-CRD, replicate values in one cell. On the procedure: as §1, §2, §3, §4
Setting [4] is: Assay 2 Kd, 5 nM Alexa 647 mannoside probe, 60 nM FimH-CRD, replicate values in one cell.
Setting [5] is: read-out: Assay 2 Kd, 5 nM Alexa 647 mannoside probe, 60 nM FimH-CRD, replicate values in one cell.

T1 sequence (P08191 22-177): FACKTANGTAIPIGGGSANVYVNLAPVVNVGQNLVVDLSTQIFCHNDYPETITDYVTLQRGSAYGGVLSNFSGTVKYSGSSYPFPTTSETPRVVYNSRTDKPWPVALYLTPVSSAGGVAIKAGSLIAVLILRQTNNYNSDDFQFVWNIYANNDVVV

Broadly, the Kd is the free concentration of one partner at which half of the binding sites on the other are occupied at equilibrium, for simple one-to-one binding. Turning to `OC[C@H]1O[C@H](c2ccc3cc(C#C[C@H]4O[C@H](CO)[C@@H](O)[C@H](O)[C@@H]4O)ccc3c2)[C@@H](O)[C@@H](O)[C@@H]1O` [Compound 56, (2R,3S,4R,5S,6R)-2-(Hydroxymethyl)-6-[2-[6-[(2R,3S,4R,5S,6R)-3,4,5-trihydroxy-6-(hydroxymethyl)tetrahydropyran-2-yl]-2-naphthyl]ethynyl]tetrahydropyran-3,4,5-triol], the IC50 in test [1] worked out at 20 nM. For the same molecule, the dissociation constant (Kd) on FimH-CRD [2] (setting [4]) and on FimH-CRD [2] (setting [5]) was < 5 nM each time.

Turning to `OC[C@H]1O[C@H](C#Cc2ccc(C#C[C@H]3O[C@H](CO)[C@@H](O)[C@H](O)[C@@H]3O)cc2)[C@@H](O)[C@@H](O)[C@@H]1O` [Compound 53, (2R,3S,4R,5S,6R)-2-(Hydroxymethyl)-6-[2-[4-[2-[(2R,3S,4R,5S,6R)-3,4,5-trihydroxy-6-(hydroxymethyl)tetrahydropyran-2-yl]ethynyl]phenyl]ethynyl]tetrahydropyran-3,4,5-triol], in test [1], the IC50 is 55 nM. The Kd on FimH-CRD [2] (setting [4]) and on FimH-CRD [2] (setting [5]) was < 5 nM each time.

As for `OC[C@H]1O[C@H](C/C=C/c2ccc(C#C[C@H]3O[C@H](CO)[C@@H](O)[C@H](O)[C@@H]3O)cc2)[C@@H](O)[C@@H](O)[C@@H]1O` [Compound 55, (2R,3S,4R,5S,6R)-2-(Hydroxymethyl)-6-[(E)-3-[4-[2-[(2R,3S,4R,5S,6R)-3,4,5-trihydroxy-6-(hydroxymethyl)tetrahydropyran-2-yl]ethynyl]phenyl]allyl]tetrahydropyran-3,4,5-triol], the IC50 in test [1] amounted to 210 nM. The dissociation constant Kd on FimH-CRD [2] (setting [4]) is < 5 nM and 5 nM.

As to `OC[C@H]1O[C@H](C#Cc2cccc(C#C[C@H]3O[C@H](CO)[C@@H](O)[C@H](O)[C@@H]3O)c2)[C@@H](O)[C@@H](O)[C@@H]1O` [Compound 57, (2R,3S,4R,5S,6R)-2-(Hydroxymethyl)-6-[2-[3-[2-[(2R,3S,4R,5S,6R)-3,4,5-trihydroxy-6-(hydroxymethyl)tetrahydropyran-2-yl]ethynyl]phenyl]ethynyl]tetrahydropyran-3,4,5-triol], in test [1], the IC50 was determined as 27 nM. The Kd on FimH-CRD [2] (setting [4]) and on FimH-CRD [2] (setting [5]) was < 5 nM in each case.

`OC[C@H]1O[C@H](C#Cc2ccc3ccc(C#C[C@H]4O[C@H](CO)[C@@H](O)[C@H](O)[C@@H]4O)cc3c2)[C@@H](O)[C@@H](O)[C@@H]1O` [Compound 58, (2R,3S,4R,5S,6R)-2-(Hydroxymethyl)-6-[2-[7-[2-[(2R,3S,4R,5S,6R)-3,4,5-trihydroxy-6-(hydroxymethyl)tetrahydropyran-2-yl]ethynyl]-2-naphthyl]ethynyl]tetrahydropyran-3,4,5-triol]: the IC50 in test [1] was 17 nM. Further, the Kd on FimH-CRD [2] (setting [4]) and at FimH-CRD [2] (setting [5]) was < 5 nM throughout.

Regarding `OC[C@H]1O[C@H](C#CC#C[C@H]2O[C@H](CO)[C@@H](O)[C@H](O)[C@@H]2O)[C@@H](O)[C@@H](O)[C@@H]1O` [Compound 54, (2R,3S,4R,5S,6R)-2-(hydroxymethyl)-6-[4-[(2R,3S,4R,5S,6R)-3,4,5-trihydroxy-6-(hydroxymethyl)tetrahydropyran-2-yl]buta-1,3-diynyl]tetrahydropyran-3,4,5-triol], the IC50 in test [1] was 1150 nM. The dissociation constant Kd on FimH-CRD [2] (setting [4]) was 16 nM and 30 nM.

In the case of `OC[C@H]1O[C@H](c2cn([C@H]3O[C@H](CO)[C@@H](O)[C@H](O)[C@@H]3O)nn2)[C@@H](O)[C@@H](O)[C@@H]1O` [Compound 42, ((2R,3S,4R,5S,6R)-2-(Hydroxymethyl)-6-[1-[(2S,3S,4S,5S,6R)-3,4,5-trihydroxy-6-(hydroxymethyl)tetrahydropyran-2-yl]triazol-4-yl]tetrahydropyran-3,4,5-triol)], the Kd at FimH-CRD [3] is 114 nM and 377 nM; at FimH-CRD [2] (setting [4]) it was 140 nM and 145 nM.

As to `OC[C@H]1O[C@H](C#Cc2ccc3cc(C#C[C@H]4O[C@H](CO)[C@@H](O)[C@H](O)[C@@H]4O)ccc3c2)[C@@H](O)[C@@H](O)[C@@H]1O` [Compound 59, (2R,3S,4R,5S,6R)-2-(Hydroxymethyl)-6-[2-[6-[2-[(2R,3S,4R,5S,6R)-3,4,5-trihydroxy-6-(hydroxymethyl)tetrahydropyran-2-yl]ethynyl]-2-naphthyl]ethynyl]tetrahydropyran-3,4,5-triol], the IC50 in test [1] was found to be 8.2 nM. For the same molecule, the Kd on FimH-CRD [2] (setting [4]) and at FimH-CRD [2] (setting [5]) was < 5 nM in each case.

On to `O=C(NCCCNC(=O)c1cccc([C@H]2O[C@H](CO)[C@@H](O)[C@H](O)[C@@H]2O)c1)c1cccc([C@H]2O[C@H](CO)[C@@H](O)[C@H](O)[C@@H]2O)c1` [Compound 9, (R,R,S,R,S)-N,N′-(Propane-1,3-diyl)bis(3-((2R,3S,4R,5S,6R)-3,4,5-trihydroxy-6-(hydroxymethyl)tetrahydro-2H-pyran-2-yl)benzamide)], for which the Kd is 7 nM and 12 nM at FimH-CRD [3]; 24 nM on FimH-CRD [2] (setting [4]).

For `O=C(Nc1cccc([C@H]2O[C@H](CO)[C@@H](O)[C@H](O)[C@@H]2O)c1)Nc1cccc([C@H]2O[C@H](CO)[C@@H](O)[C@H](O)[C@@H]2O)c1` [Compound 51, (1,3-Bis(3-((2R,3S,4R,5S,6R)-3,4,5-trihydroxy-6-(hydroxymethyl)tetrahydro-2H-pyran-2-yl)phenyl)urea)], in test [1], the IC50 was 830 nM. Besides, at FimH-CRD [2] (setting [4]), the Kd is 15 nM and < 5 nM.

Take `O=C(NCCCCCNC(=O)c1cccc([C@H]2O[C@H](CO)[C@@H](O)[C@H](O)[C@@H]2O)c1)c1cccc([C@H]2O[C@H](CO)[C@@H](O)[C@H](O)[C@@H]2O)c1` [Compound 11, (R,R,S,R,S)-N,N′-(Pentane-1,5-diyl)bis(3-((2R,3S,4R,5S,6R)-3,4,5-trihydroxy-6-(hydroxymethyl)tetrahydro-2H-pyran-2-yl)benzamide)]: the dissociation constant (Kd) on FimH-CRD [3] was < 5 nM and 11 nM; at FimH-CRD [2] (setting [4]), 16 nM.

`OC[C@H]1O[C@H](c2cccc(C#CC#Cc3cccc([C@H]4O[C@H](CO)[C@@H](O)[C@H](O)[C@@H]4O)c3)c2)[C@@H](O)[C@@H](O)[C@@H]1O` [Compound 50, ((2R,3S,4R,5S,6R)-2-(Hydroxymethyl)-6-[3-[4-[3-[(2R,3S,4R,5S,6R)-3,4,5-trihydroxy-6-(hydroxymethyl)tetrahydropyran-2-yl]phenyl]buta-1,3-diynyl]phenyl]tetrahydropyran-3,4,5-triol)]: the IC50 in test [1] is 950 nM. Moreover, at FimH-CRD [2] (setting [4]), the equilibrium dissociation constant (Kd) was 9 nM and < 5 nM (2×).

For the molecule `OC[C@H]1O[C@H](c2cccc(CCCCc3cccc([C@H]4O[C@H](CO)[C@@H](O)[C@H](O)[C@@H]4O)c3)c2)[C@@H](O)[C@@H](O)[C@@H]1O` [Compound 52, ((2R,3S,4R,5S,6R)-2-(Hydroxymethyl)-6-[3-[4-[3-[(2R,3S,4R,5S,6R)-3,4,5-trihydroxy-6-(hydroxymethyl)tetrahydropyran-2-yl]phenyl]butyl]phenyl]tetrahydropyran-3,4,5-triol)], the IC50 in test [1] stood at 660 nM. The Kd at FimH-CRD [2] (setting [4]) and on FimH-CRD [2] (setting [5]) was < 5 nM each time.

As for `OC[C@H]1O[C@H](C#Cc2cccc3c(C#C[C@H]4O[C@H](CO)[C@@H](O)[C@H](O)[C@@H]4O)cccc23)[C@@H](O)[C@@H](O)[C@@H]1O` [Compound 60, (2R,3S,4R,5S,6R)-2-(Hydroxymethyl)-6-[2-[5-[2-[(2R,3S,4R,5S,6R)-3,4,5-trihydroxy-6-(hydroxymethyl)tetrahydropyran-2-yl]ethynyl]-1-naphthyl]ethynyl]tetrahydropyran-3,4,5-triol], the IC50 in test [1] worked out at 13 nM. For the same molecule, the equilibrium dissociation constant (Kd) at FimH-CRD [2] (setting [4]) and on FimH-CRD [2] (setting [5]) was < 5 nM each time.
